Measurements published in publication PMC8587101, “Design and Synthesis of Novel Betulin Derivatives Containing Thio-/Semicarbazone Moieties as Apoptotic Inducers through Mitochindria-Related Pathways” (Molecules, 2021).
Values joined by “and” are separate entries in the source; they are usually repeats but may differ in a detail not shown here. Equal values may be shown once. Read-outs that look alike come from different tables or passages of the source.

Key:
[1] = system: human colorectal cells (HCT-116); experiment: MTT cytotoxicity assay, HCT-116; format: cell-based; conditions: read-out: IC50 (μM) HCT-116
[2] = system: human breast carcinoma cells (MCF-7); experiment: MTT cytotoxicity assay, MCF-7; format: cell-based; conditions: read-out: IC50 (μM) MCF-7
[3] = system: human lung carcinoma cells (A549); experiment: MTT cytotoxicity assay, A549; format: cell-based; conditions: read-out: IC50 (μM) A549
[4] = system: normal human gastric epithelial cells (GES-1); experiment: MTT cytotoxicity assay, GES-1 normal cells; format: cell-based; conditions: read-out: IC50 (μM) GES-1
[5] = HCT-116, MTT, 48 h, means ± SD of three experiments
[6] = Homo sapiens, MCF7, 48 h, MTT, 48 h, means ± SD of three experiments
[7] = A549, MTT, 48 h, means ± SD of three experiments
[8] = GES1, MTT, 48 h, normal cells, means ± SD of three experiments, “-” not active
[9] = MTT, 48 h, means ± SD of three experiments

Structure (SMILES)	IC50 [1, 5] [µM]	IC50 [2, 6] [µM]	IC50 [3, 7] [µM]	IC50 [4, 8] [µM]	melting point [°C]	IC50 ([1]; HCT-116, 48 h) [µM]	IC50 ([2]; Homo sapiens, MCF7, 48 h) [µM]	IC50 ([3]; A549, 48 h) [µM]	IC50 ([4]; GES1, 48 h) [µM]	IC50 [2, 9]
C=C(C)[C@@H]1CC[C@]2(/C=N/NC(=O)Nc3ccc(Cl)cc3)CC[C@]3(C)C(CCC4[C@@]5(C)CC[C@H](O)C(C)(C)C5CC[C@]43C)C12 (stereo partly drawn) [Compound 7a, Lup-20(29)-ene-3β-ol-28-N-(4-chlorophenyl)semicarbazide]	34.8 ± 1.25	8.57 ± 0.6	18.1 ± 1.03	70.8 ± 2.12	227.2 to 228.3					
C=C(C)[C@@H]1CC[C@]2(/C=N/NC(=O)Nc3ccc(OC)cc3)CC[C@]3(C)C(CCC4[C@@]5(C)CC[C@H](O)C(C)(C)C5CC[C@]43C)C12 (stereo partly drawn) [Compound 7c, Lup-20(29)-ene-3β-ol-28-N-(4-methoxyphenyl)semicarbazide]	> 80	44.4 ± 2.26	> 80	> 80	214.2 to 216					
C=C(C)[C@@H]1CC[C@]2(CO)CC[C@]3(C)[C@H](CC[C@@H]4[C@@]5(C)CC[C@H](O)C(C)(C)[C@@H]5CC[C@]43C)[C@@H]12 [Compound 1, lup-20(29)-ene-3β,28-diol, reference compound]						30 ± 1.22	19.4 ± 0.93	27.1 ± 1.2	108 ± 4.34	
C=C(C)[C@@H]1CC[C@]2(/C=N/NC(=S)Nc3ccc(Cl)c(Cl)c3)CC[C@]3(C)C(CCC4[C@@]5(C)CC[C@H](O)C(C)(C)C5CC[C@]43C)C12 (stereo partly drawn) [Compound 8g, Lup-20(29)-ene-3β-ol-28-N-(3,4-dichlorophenyl)thiosemicarbazide]	20.2 ± 0.87	11.3 ± 1.07	16.9 ± 1.05	174 ± 5.14	219.8 to 221.8					
C=C(C)[C@@H]1CC[C@]2(/C=N/NC(=O)Nc3ccc(C#N)cc3)CC[C@]3(C)C(CCC4[C@@]5(C)CC[C@H](O)C(C)(C)C5CC[C@]43C)C12 (stereo partly drawn) [Compound 7b, Lup-20(29)-ene-3β-ol-28-N-(4-cyanophenyl)semicarbazide]	51.1 ± 2.52	< 10	25.1 ± 1.01	85.4 ± 3.37	236.5 to 238					7.88 ± 0.54 µM
C=C(C)[C@@H]1CC[C@]2(/C=N/NC(=S)Nc3ccc(OC)cc3)CC[C@]3(C)C(CCC4[C@@]5(C)CC[C@H](O)C(C)(C)C5CC[C@]43C)C12 (stereo partly drawn) [Compound 8d, Lup-20(29)-ene-3β-ol-28-N-(4-methoxyphenyl)thiosemicarbazide]	> 80	38.4 ± 1.58	> 80	> 80	203.7 to 205.2					
C=C(C)[C@@H]1CC[C@]2(/C=N/NC(=S)Nc3ccc(Cl)cc3)CC[C@]3(C)C(CCC4[C@@]5(C)CC[C@H](O)C(C)(C)C5CC[C@]43C)C12 (stereo partly drawn) [Compound 8b, Lup-20(29)-ene-3β-ol-28-N-(4-chlorophenyl)thiosemicarbazide]	49.5 ± 1.44	< 10	18.7 ± 0.98	203 ± 5.74	212.5 to 214					7.79 ± 0.45 µM
C=C(C)[C@@H]1CC[C@]2(/C=N/NC(=O)Nc3cccc(C(F)(F)F)c3)CC[C@]3(C)C(CCC4[C@@]5(C)CC[C@H](O)C(C)(C)C5CC[C@]43C)C12 (stereo partly drawn) [Compound 7e, Lup-20(29)-ene-3β-ol-28-N-(3-(trifluoromethyl)phenyl)semicarbazide]	26.1 ± 1.17	< 10	43.8 ± 1.44	196 ± 5.82	223.4 to 225.1					5.86 µM and 5.96 µM
C=C(C)[C@@H]1CC[C@]2(/C=N/NC(=S)Nc3ccc(C)cc3)CC[C@]3(C)C(CCC4[C@@]5(C)CC[C@H](O)C(C)(C)C5CC[C@]43C)C12 (stereo partly drawn) [Compound 8c, Lup-20(29)-ene-3β-ol-28-N-(p-tolyl)thiosemicarbazide]	46.3 ± 1.77	28.6 ± 1.06	> 80	> 80	206.4 to 208.2					
C=C(C)[C@@H]1CC[C@]2(/C=N/NC(=O)Nc3cccc(C)c3)CC[C@]3(C)C(CCC4[C@@]5(C)CC[C@H](O)C(C)(C)C5CC[C@]43C)C12 (stereo partly drawn) [Compound 7f, Lup-20(29)-ene-3β-ol-8-N-(m-tolyl)semicarbazide]	> 80	26.8 ± 1.34	> 80	> 80	224.2 to 226					
C=C(C)[C@@H]1CC[C@]2(/C=N/NC(=O)Nc3ccc(C(F)(F)F)cc3)CC[C@]3(C)C(CCC4[C@@]5(C)CC[C@H](O)C(C)(C)C5CC[C@]43C)C12 (stereo partly drawn) [Compound 7d, Lup-20(29)-ene-3β-ol-28-N-(4-(trifluoromethyl)phenyl)semicarbazide]	28.6 ± 1.36	15.3 ± 1.23	29.4 ± 1.12	168 ± 4.59	221.5 to 222.7					
C=C(C)[C@@H]1CC[C@]2(/C=N/NC(=S)Nc3ccc(F)cc3)CC[C@]3(C)C(CCC4[C@@]5(C)CC[C@H](O)C(C)(C)C5CC[C@]43C)C12 (stereo partly drawn) [Compound 8a, Lup-20(29)-ene-3β-ol-28-N-(4-fluorophenyl)thiosemicarbazide]	32.5 ± 1.26	< 10	24.1 ± 1.11	177 ± 5.02	209.3 to 211					9.8 ± 0.58 µM
C=C(C)[C@@H]1CC[C@]2(/C=N/NC(=O)Nc3ccc(Cl)c(C(F)(F)F)c3)CC[C@]3(C)C(CCC4[C@@]5(C)CC[C@H](O)C(C)(C)C5CC[C@]43C)C12 (stereo partly drawn) [Compound 7g, Lup-20(29)-ene-3β-ol-28-N-((3-trifluoromethyl-4-chloro)phenyl)semicarbazide]	13.5 ± 0.74	< 10	33.6 ± 1.15	145 ± 3.88	211.6 to 213					7.06 ± 0.44 µM
C=C(C)[C@@H]1CC[C@]2(/C=N/NC(=S)Nc3ccc(C(C)(C)C)cc3)CC[C@]3(C)C(CCC4[C@@]5(C)CC[C@H](O)C(C)(C)C5CC[C@]43C)C12 (stereo partly drawn) [Compound 8e, Lup-20(29)-ene-3β-ol-28-N-(4-tert-butylphenyl)thiosemicarbazide]	> 80	46.4 ± 3.42	> 80	> 80	216.8 to 218.2					
CO[C@@]12[C@H](COC(N)=O)C3=C(C(=O)C(C)=C(N)C3=O)N1C[C@@H]1N[C@@H]12 [Mitomycin, Mitomycin C, reference compound]	11.4 ± 0.87	15.9 ± 1.03	12.8 ± 1.08	20.5 ± 1.02						
